Measurements: patent US20110003778A1, “MINERALCORTICOID RECEPTOR ANTAGONISTS FOR THE TREATMENT OF ENDOMETRIOSIS” (Bayer Schering Pharma Aktiengesellschaft, priority 2007, published 2011)
“Also recorded” adds a separate entry of the source.

Tests used:
[1] = tested on: endometriotic lesions; assay: Endometriosis model in rhesus macaques: uterus weight and weights/size of endometrial lesions after 60 days of treatment; format: in vivo
Experimental: (§1) The activity of the mineralcorticoid receptor antagonist spironolactone was tested in an endometriosis model in non-human primates. Non-human primates are the only species apart from man where endometriosis occurs spontaneously under natural conditions. They are therefore the most relevant model for examining this disorder. […] In this procedure, the animals are given a depot for estradiol substitution which keeps the serum level at 80 to 100 pg/ml. In this manner, it is ensured that the endometriotic lesions are exposed to physiological concentrations of estradiol. By virtue of the depot, interindividual variations of the hormone concentrations and their effect on the results can be excluded. After the treatment, the size of the endometrium lesions was determined, and the proliferation of these lesions was detected by a histological analysis. […] In an autologous transplantation, a plurality of lesions from endometrium tissue were implanted subcutaneously and intraperitoneally/abdominally into rhesus macaques.

[2] = tested on: endometriotic lesions; assay: Rate of proliferation of endometrial lesions in the rhesus macaque endometriosis model (Ki67 staining, BrDU incorporation); format: in vivo, rhesus macaques; conditions: abdominal lesions, secretory cells; 60 days spironolactone vs control; FIG. 3
Experimental: as §1, with “Accordingly, the mineralcorticoid receptor antagonist spironolactone has” for “In an autologous transplantation,”, “positive effect on endometriosis genesis.” for “plurality of lesions from endometrium tissue were implanted subcutaneously and intraperitoneally/abdominally into rhesus macaques.”
Examination of the rate of proliferation of endometrial lesions in an endometriosis model in rhesus macaques after treatment with spironolactone.
Both detection of cell division in the endometriotic lesions by Ki67 (top row) and by incorporation of BrDU (bottom row) show a reduced value in the animals treated with spironolactone (control, left, compared to spironolactone, right).

[3] = after 60 days of treatment, macaque model, n = 4

Row | SMILES | Intraabdominal lesion wt [1, 3] | Subcutaneous lesion wt [1, 3] [g] | Uterus wt [1, 3] [g] | size of the endometriotic lesions compared to control animals ([1]; 60 days estradiol + spironolactone 30 mg/kg/day vs estradiol control) | effect on the uterus as such ([1]; 60 days estradiol + spironolactone vs estradiol control) | weight of subcutaneous and intraperitoneal/abdominal lesions after treatment (in words) ([1]; 60 days estradiol + spironolactone vs estradiol control, both types of lesions) | proliferation in the lesions by bromodeoxyuridine (BrDU) incorporation [2] | proliferation in the lesions by staining of the mitotic antigen Ki67 [2]
1 | C[C@]12CC[C@@H]3c4ccc(O)cc4CC[C@H]3[C@@H]1CC[C@@H]2O [E2, estradiol] | 0.068 + 0.11 g | 0.039 ± 0.008 | 3.75 ± 0.496 | – | – | – | – | –
2 | CC(=O)S[C@@H]1CC2=CC(=O)CC[C@]2(C)[C@H]2CC[C@@]3(C)[C@@H](CC[C@@]34CCC(=O)O4)[C@H]12 [spironolactone] | – | – | – | significant reduction of the endometriotic lesions | no significant effect | reduction in weight | reduction of proliferation; also recorded: strongly reduced; also recorded: reduced value | reduction of proliferation; also recorded: strongly reduced; also recorded: reduced value
